# Data: PubChem BioAssay AID434974 (The Scripps Research Institute Molecular Screening Center, 2010)
# Activity calls are given as the source filed them. How the calls were made is not given here.
# Legend:
# Assay in all cases: off-target binding across PDSP receptor panel, profiling panel, selectivity assay for NOX1 inhibitor project, biochemical, radioligand binding (AID 434974)
# [1] = target: Kappa-type opioid receptor (Homo sapiens) (UniProt P41145); details: receptor displacement, Opioid receptor KOR, at 10 µM, stronger effect = higher value
# Chain of Kappa-type opioid receptor (Homo sapiens) (P41145 whole entry, looked up): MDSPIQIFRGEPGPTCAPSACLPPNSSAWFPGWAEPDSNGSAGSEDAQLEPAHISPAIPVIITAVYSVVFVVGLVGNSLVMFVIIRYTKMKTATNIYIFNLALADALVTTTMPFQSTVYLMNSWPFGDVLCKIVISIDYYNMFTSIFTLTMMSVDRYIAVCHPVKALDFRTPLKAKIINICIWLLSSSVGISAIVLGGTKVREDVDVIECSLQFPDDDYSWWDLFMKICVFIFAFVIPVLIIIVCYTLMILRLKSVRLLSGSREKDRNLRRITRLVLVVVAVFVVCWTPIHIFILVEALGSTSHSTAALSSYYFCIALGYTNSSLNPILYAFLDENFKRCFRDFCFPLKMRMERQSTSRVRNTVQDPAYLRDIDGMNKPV
# [2] = target: Muscarinic acetylcholine receptor M1 (Homo sapiens) (UniProt P11229); details: receptor displacement, at 10 µM, stronger effect = higher value
# Chain of Muscarinic acetylcholine receptor M1 (Homo sapiens) (P11229 whole entry, looked up): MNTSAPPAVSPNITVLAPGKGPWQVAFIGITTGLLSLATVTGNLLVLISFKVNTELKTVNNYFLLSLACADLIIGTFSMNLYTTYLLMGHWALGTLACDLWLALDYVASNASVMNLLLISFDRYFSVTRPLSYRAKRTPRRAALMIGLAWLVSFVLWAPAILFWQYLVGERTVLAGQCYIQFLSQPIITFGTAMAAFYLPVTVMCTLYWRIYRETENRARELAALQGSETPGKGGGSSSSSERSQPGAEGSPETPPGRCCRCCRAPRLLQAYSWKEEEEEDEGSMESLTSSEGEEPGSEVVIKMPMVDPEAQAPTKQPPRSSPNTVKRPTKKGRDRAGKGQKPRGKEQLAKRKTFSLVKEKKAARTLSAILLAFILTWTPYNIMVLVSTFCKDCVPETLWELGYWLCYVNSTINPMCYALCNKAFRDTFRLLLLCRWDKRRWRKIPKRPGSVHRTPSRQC
# [3] = target: Muscarinic acetylcholine receptor M2 (Homo sapiens) (UniProt P08172); details: receptor displacement, at 10 µM, stronger effect = higher value
# Chain of Muscarinic acetylcholine receptor M2 (Homo sapiens) (P08172 whole entry, looked up): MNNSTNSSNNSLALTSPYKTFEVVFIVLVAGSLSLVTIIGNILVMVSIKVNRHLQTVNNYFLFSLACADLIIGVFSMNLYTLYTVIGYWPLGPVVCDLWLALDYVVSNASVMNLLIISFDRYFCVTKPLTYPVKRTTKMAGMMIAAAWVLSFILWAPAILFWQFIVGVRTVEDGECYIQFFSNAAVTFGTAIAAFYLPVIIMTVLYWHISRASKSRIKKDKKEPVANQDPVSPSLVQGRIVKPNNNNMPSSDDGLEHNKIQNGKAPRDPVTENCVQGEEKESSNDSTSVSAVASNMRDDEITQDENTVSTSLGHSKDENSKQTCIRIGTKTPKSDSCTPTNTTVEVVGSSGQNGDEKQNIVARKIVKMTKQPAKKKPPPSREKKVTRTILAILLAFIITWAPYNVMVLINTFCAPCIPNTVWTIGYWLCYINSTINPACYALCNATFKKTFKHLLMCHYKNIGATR
# [4] = target: Muscarinic acetylcholine receptor M3 (Homo sapiens) (UniProt P20309); details: receptor displacement, at 10 µM, stronger effect = higher value
# Chain of Muscarinic acetylcholine receptor M3 (Homo sapiens) (P20309 whole entry, looked up): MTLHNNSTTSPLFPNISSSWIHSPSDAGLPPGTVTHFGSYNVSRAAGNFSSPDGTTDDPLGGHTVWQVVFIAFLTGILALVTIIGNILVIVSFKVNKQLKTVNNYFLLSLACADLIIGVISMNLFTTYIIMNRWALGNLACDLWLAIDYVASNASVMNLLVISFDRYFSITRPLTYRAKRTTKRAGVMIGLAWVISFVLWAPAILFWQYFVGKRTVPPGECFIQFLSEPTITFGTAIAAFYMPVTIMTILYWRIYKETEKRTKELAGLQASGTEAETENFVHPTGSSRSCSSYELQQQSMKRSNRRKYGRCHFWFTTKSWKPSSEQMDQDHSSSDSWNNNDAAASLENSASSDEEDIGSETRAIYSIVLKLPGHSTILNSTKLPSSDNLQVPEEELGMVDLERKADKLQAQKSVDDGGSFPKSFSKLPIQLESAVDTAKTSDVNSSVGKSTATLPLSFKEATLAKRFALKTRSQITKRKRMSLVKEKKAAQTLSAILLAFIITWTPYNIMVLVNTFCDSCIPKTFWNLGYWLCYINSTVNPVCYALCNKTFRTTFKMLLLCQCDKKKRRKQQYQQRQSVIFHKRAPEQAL
# Muscarinic receptor M4 = details: receptor displacement, at 10 µM, stronger effect = higher value
# Muscarinic receptor M5 = details: receptor displacement, at 10 µM, stronger effect = higher value
# Nicotinic receptor A2B2 = details: receptor displacement, at 10 µM, stronger effect = higher value
# Nicotinic receptor A2B4 = details: receptor displacement, at 10 µM, stronger effect = higher value
# Nicotinic receptor A3B2 = details: receptor displacement, at 10 µM, stronger effect = higher value
# Nicotinic receptor A3B4 = details: receptor displacement, at 10 µM, stronger effect = higher value
# Nicotinic receptor A4B2 = details: receptor displacement, at 10 µM, stronger effect = higher value
# Nicotinic receptor A4B4 = details: receptor displacement, at 10 µM, stronger effect = higher value
# Opioid receptor MOR = details: receptor displacement, at 10 µM, stronger effect = higher value
# [5] = target: Oxytocin receptor (Homo sapiens) (UniProt P30559); details: receptor displacement, at 10 µM, stronger effect = higher value
# Chain of Oxytocin receptor (Homo sapiens) (P30559 whole entry, looked up): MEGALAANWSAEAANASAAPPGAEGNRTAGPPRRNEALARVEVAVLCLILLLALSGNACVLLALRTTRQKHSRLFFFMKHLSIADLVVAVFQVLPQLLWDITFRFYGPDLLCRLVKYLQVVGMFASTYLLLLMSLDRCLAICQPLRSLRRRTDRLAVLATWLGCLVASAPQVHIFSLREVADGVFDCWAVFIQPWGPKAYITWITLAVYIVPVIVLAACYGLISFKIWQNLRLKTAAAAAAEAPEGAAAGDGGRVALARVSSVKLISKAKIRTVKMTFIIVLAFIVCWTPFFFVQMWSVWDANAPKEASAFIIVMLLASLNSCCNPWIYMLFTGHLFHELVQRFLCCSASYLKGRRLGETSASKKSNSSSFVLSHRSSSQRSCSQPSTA
# [6] = system: Prostaglandin receptor EP3; details: receptor displacement, at 10 µM, stronger effect = higher value
# [7] = system: Prostaglandin receptor EP4; details: receptor displacement, at 10 µM, stronger effect = higher value
# Serotonin receptor 5ht1a = details: receptor displacement, at 10 µM, stronger effect = higher value
# Serotonin receptor 5ht1b = details: receptor displacement, at 10 µM, stronger effect = higher value
# Serotonin receptor 5ht1d = details: receptor displacement, at 10 µM, stronger effect = higher value
# Serotonin receptor 5ht1e = details: receptor displacement, at 10 µM, stronger effect = higher value
# Serotonin receptor 5ht2a = details: receptor displacement, at 10 µM, stronger effect = higher value
# Serotonin receptor 5ht2c = details: receptor displacement, at 10 µM, stronger effect = higher value
# Serotonin receptor 5ht3 = details: receptor displacement, at 10 µM, stronger effect = higher value
# Serotonin receptor 5ht5a = details: receptor displacement, at 10 µM, stronger effect = higher value
# Serotonin receptor 5ht6 = details: receptor displacement, at 10 µM, stronger effect = higher value
# Serotonin receptor 5ht7 = details: receptor displacement, at 10 µM, stronger effect = higher value
# Sigma receptor 1 = details: receptor displacement, at 10 µM, stronger effect = higher value
# Sigma receptor 2 = details: receptor displacement, at 10 µM, stronger effect = higher value
# Vasopressin receptor V1A = details: receptor displacement, at 10 µM, stronger effect = higher value
# Vasopressin receptor V1B = details: receptor displacement, at 10 µM, stronger effect = higher value
# Vasopressin receptor V2 = details: receptor displacement, at 10 µM, stronger effect = higher value
structure (smiles),measurement,setting,value
CN1c2ccccc2Sc2cc(N)ccc21,inhibition,[1],16.3% (inactive)
same,inhibition,[2],1.1% (inactive)
same,inhibition,[3],22.4% (inactive)
same,inhibition,[4],-5.8% (inactive)
same,inhibition,Muscarinic receptor M4,19.3% (inactive)
same,inhibition,Muscarinic receptor M5,2.3% (inactive)
same,inhibition,Nicotinic receptor A2B2,-4% (inactive)
same,inhibition,Nicotinic receptor A2B4,4% (inactive)
same,inhibition,Nicotinic receptor A3B2,4% (inactive)
same,inhibition,Nicotinic receptor A3B4,0% (inactive)
same,inhibition,Nicotinic receptor A4B2,1% (inactive)
same,inhibition,Nicotinic receptor A4B4,7% (inactive)
same,inhibition,Opioid receptor MOR,-18% (inactive)
same,inhibition,[5],38.3% (inactive)
same,inhibition,[6],0% (inactive)
same,inhibition,[7],45.5% (inactive)
same,inhibition,Serotonin receptor 5ht1a,34.4% (inactive)
same,inhibition,Serotonin receptor 5ht1b,11.3% (inactive)
same,inhibition,Serotonin receptor 5ht1d,16.1% (inactive)
same,inhibition,Serotonin receptor 5ht1e,13.1% (inactive)
same,inhibition,Serotonin receptor 5ht2a,33.2% (inactive)
same,inhibition,Serotonin receptor 5ht2c,62.4%
same,inhibition,Serotonin receptor 5ht3,1.4% (inactive)
same,inhibition,Serotonin receptor 5ht5a,45.6% (inactive)
same,inhibition,Serotonin receptor 5ht6,30.8% (inactive)
same,inhibition,Serotonin receptor 5ht7,-5.7% (inactive)
same,inhibition,Sigma receptor 1,50.1%
same,inhibition,Sigma receptor 2,9% (inactive)
same,inhibition,Vasopressin receptor V1A,4% (inactive)
same,inhibition,Vasopressin receptor V1B,8.9% (inactive)
same,inhibition,Vasopressin receptor V2,-5.5% (inactive)
